Laboratory results taken from US5013743A, “Selective antibacterial agent against campytobacter” (Takeda Chemical Industries, Ltd., priority 1989, dated 1991).
≈ marks a conversion by molar mass, not a printed value.

Tests used:
Assay type in all cases: cell-based
C. pylori NCTC 11637 = assay: MIC, agar-plate dilution method, test strain B; conditions: Helicobacter pylori, NCTC11637, 72 h, Brucella agar, 37° C., 3 days
Method: (§1) The minimum inhibitory concentration (MIC) of each compound was determined by the agar-plate dilution method based on the standard method advocated by Japan Society of Chemotherapy [cf: Chemotherapy, Jan. '81, p. 76]. The volume of agar medium per plate was 20 ml. Each of the test compounds was dissolved in dimethylsulfoxide at a concentration of 80 mg/ml or 40 mg/ml, and diluted 10 times with sterile distilled water. Furthermore, the aqueous solution of 8 mg/ml or 4 mg/ml was diluted serially 2-fold with sterile distilled water. To 2 ml of the diluted solution was added 18 ml of Brucella agar (BBL Microbiology Systems, Becton Dickinson and Co., Cockeysville, Md. 21030) containing 7% defibrinated horse blood (manufactured by Nippon Bio-supp. Center) and mixed well. Test strains frozen at -80° C. in Brucella broth (BBL) containing 10% horse serum were thawed and inoculated on a Brucella agar slant medium containing 7% defibrinated horse blood. The medium was incubated anaerobically at 37° C. for 3 days in a jar containing a piece of sponge sufficiently impregnated with water and Campy Pak™ (BBL). The organisms grown on the slant medium were collected and suspended in a Brucella broth to correspond to the turbidity of about 10^8 CFU/ml of common bacteria. One platinum loop of inoculum was streaked on the medium plates for determination. The plates were incubated under the same conditions as described above.

C. pylori PCL 56 = assay: MIC, agar-plate dilution method, test strain C; conditions: Helicobacter pylori, PCL56, 72 h, Brucella agar, 37° C., 3 days
Method: as §1, with “above. […] The results are shown in Table 2 and Table 3. | C: C. pylori PCL 56” for “above.”

C. pylori CPY 00111 = assay: MIC, agar-plate dilution method, test strain D; conditions: Helicobacter pylori, CPY00111, 72 h, Brucella agar, 37° C., 3 days
Method: as §1

C. pylori KS 13 = assay: MIC, agar-plate dilution method, test strain E; conditions: Helicobacter pylori, KS13, 72 h, Brucella agar, 37° C., 3 days
Method: as §1

C. pylori CLO 6 = assay: MIC, agar-plate dilution method, test strain G; conditions: Helicobacter pylori, CLO6, 72 h, Brucella agar, 37° C., 3 days
Method: as §1

[1] = test system: A. calcoaceticus IFO 13006; assay: MIC, standard agar-plate dilution method, aerobic common bacteria; conditions: Acinetobacter calcoaceticus, IFO13006
Source text: (§2) Antibacterial activities of some compounds of the present invention against aerobic common bacteria were examined.

C. freundii IFO 12681 = assay: as above; conditions: Citrobacter freundii, IFO12681
Source text: as §2

E. cloacae IFO 12937 = assay: as above; conditions: Enterobacter cloacae, IFO12937
Source text: as §2

E. cloacae TN 583 = assay: as above; conditions: Enterobacter cloacae, TN583
Source text: as §2

E. coli 0-111 = assay: as above; conditions: Escherichia coli, 0111
Source text: as §2

E. coli NIHJ JC-2 = assay: as above; conditions: Escherichia coli, NIHJJC2
Source text: as §2

E. coli T 7 = assay: as above; conditions: Escherichia coli, T7
Source text: as §2

K. oxytoca TN 1711 = assay: as above; conditions: Klebsiella oxytoca, TN1711
Source text: as §2

K. pneumoniae DT = assay: as above; conditions: Klebsiella pneumoniae
Source text: as §2

M. morganii IFO 3168 = assay: as above; conditions: Morganella morganii, IFO3168
Source text: as §2

P. aeruginosa B 184 = assay: as above; conditions: Pseudomonas aeruginosa, B184
Source text: as §2

P. vulgaris IFO 3988 = assay: as above; conditions: Proteus vulgaris, IFO3988
Source text: as §2

S. aureus 308 A-1 = assay: as above; conditions: Staphylococcus aureus, 308A1
Source text: as §2

S. aureus J-108 = assay: as above; conditions: Staphylococcus aureus, J108
Source text: as §2

S. aureus N-241 = assay: as above; conditions: Staphylococcus aureus, N241
Source text: as §2

S. faecium IFO 3128 = assay: as above; conditions: Enterococcus faecium, IFO3128
Source text: as §2

S. marcecens B 315 = assay: as above
Source text: as §2

S. mitis America = assay: as above; conditions: Streptococcus mitis
Source text: as §2

S. pneumoniae Type 1 = assay: as above; conditions: Streptococcus pneumoniae, TYPE1
Source text: as §2

S. pyogenes E-14 = assay: as above; conditions: Streptococcus pyogenes, E14
Source text: as §2

aerobic bacteria = assay: Antibacterial action against aerobic bacteria (Table 4, summary in words); conditions: summary of Table 4
Source text: as §2

Structure (SMILES) | MIC (C. pylori NCTC 11637) [µg/mL] | MIC (C. pylori PCL 56) [µg/mL] | MIC (C. pylori CPY 00111) [µg/mL] | MIC (C. pylori KS 13) [µg/mL] | MIC (C. pylori CLO 6) [µg/mL] | MIC [1] [µg/mL] | MIC (C. freundii IFO 12681) [µg/mL] | MIC (E. cloacae IFO 12937) [µg/mL] | MIC (E. cloacae TN 583) [µg/mL] | MIC (E. coli 0-111) [µg/mL] | MIC (E. coli NIHJ JC-2) [µg/mL] | MIC (E. coli T 7) [µg/mL] | MIC (K. oxytoca TN 1711) [µg/mL] | MIC (K. pneumoniae DT) [µg/mL] | MIC (M. morganii IFO 3168) [µg/mL] | MIC (P. aeruginosa B 184) [µg/mL] | MIC (P. vulgaris IFO 3988) [µg/mL] | MIC (S. aureus 308 A-1) [µg/mL] | MIC (S. aureus J-108) [µg/mL] | MIC (S. aureus N-241) [µg/mL] | other results
COc1ccc2[nH]c([S+]([O-])Cc3ncc(C)c(OC)c3C)nc2c1 (stereo not drawn) [Compound 2] | 25 (≈ 72.4 µM) | 12.5 (≈ 36.2 µM) | 12.5 (≈ 36.2 µM) | 25 (≈ 72.4 µM) | 12.5 (≈ 36.2 µM) | > 400 | > 400 | > 400 | > 400 | > 400 | > 400 | 40 (≈ 116 µM) | > 400 | > 400 | > 400 | > 400 | > 400 | > 400 | > 400 | > 400 | MIC (S. faecium IFO 3128): > 400 µg/mL; MIC (S. marcecens B 315): > 400 µg/mL; MIC (S. mitis America): > 400 µg/mL; MIC (S. pneumoniae Type 1): > 400 µg/mL; MIC (S. pyogenes E-14): > 400 µg/mL; antibacterial action against the aerobic bacteria (aerobic bacteria): did not possess at all antibacterial action
Cc1c(OCC(F)(F)F)ccnc1C[S+]([O-])c1nc2ccccc2[nH]1 (stereo not drawn) [Compound 1] | 6.25 (≈ 16.9 µM) | 6.25 (≈ 16.9 µM) | 6.25 (≈ 16.9 µM) | 6.25 (≈ 16.9 µM) | 3.13 (≈ 8.47 µM) | > 400 | > 400 | > 400 | > 400 | > 400 | > 400 | > 400 | > 400 | > 400 | > 400 | > 400 | > 400 | > 400 | > 400 | > 400 | MIC (S. faecium IFO 3128): > 400 µg/mL; MIC (S. marcecens B 315): > 400 µg/mL; MIC (S. mitis America): > 400 µg/mL; MIC (S. pneumoniae Type 1): > 400 µg/mL; MIC (S. pyogenes E-14): > 400 µg/mL; antibacterial action against the aerobic bacteria (aerobic bacteria): did not possess at all antibacterial action
Cc1c(OCC(F)(F)F)ccnc1CSc1nc2ccccc2[nH]1 [Compound 6] | 12.5 (≈ 35.4 µM) | 6.25 (≈ 17.7 µM) | 3.13 (≈ 8.86 µM) | 12.5 (≈ 35.4 µM) | 6.25 (≈ 17.7 µM) | > 400 | > 400 | > 400 | > 400 | 40 (≈ 113 µM) | > 400 | > 400 | > 400 | > 400 | > 400 | > 400 | > 400 | > 400 | > 400 | > 400 | MIC (S. faecium IFO 3128): > 400 µg/mL; MIC (S. marcecens B 315): > 400 µg/mL; MIC (S. mitis America): > 400 µg/mL; MIC (S. pneumoniae Type 1): > 400 µg/mL; MIC (S. pyogenes E-14): > 400 µg/mL; antibacterial action against the aerobic bacteria (aerobic bacteria): did not possess at all antibacterial action
